Laboratory results as given in paper PMC12298351, “Novel 3,19-(N-Phenyl-3-(4-fluorophenyl)-pyrazole) Acetal of Andrographolide Promotes Cell Cycle Arrest and Apoptosis in MDA-MB-231 Breast Cancer Cells” (Pharmaceuticals, 2025).

What was measured:
[1] = tested on: M14; assay type: cell-based; details: M14, Melanoma
[2] = tested on: TK-10; assay type: cell-based; details: TK-10, Renal
[3] = tested on: CCRF-CEM
[4] = tested on: K-562; details: K-562, Leukemia
[5] = tested on: RPMI-8226; details: RPMI-8226, Leukemia
[6] = tested on: SR
[7] = tested on: A549/ATCC
[8] = tested on: EKVX
[9] = tested on: HOP-62
[10] = tested on: NCI-H460
[11] = tested on: KM12; details: KM12, Colon
[12] = tested on: SW-620; details: SW-620, Colon
[13] = tested on: SF-268; details: SF-268, CNS
[14] = tested on: U251; details: U251, CNS
[15] = tested on: LOX IMVI
[16] = tested on: SK-MEL-28; details: SK-MEL-28, Melanoma
[17] = tested on: UACC-257; details: UACC-257, Melanoma
[18] = tested on: UACC-62; details: UACC-62, Melanoma
[19] = tested on: IGROV1; details: IGROV1, Ovarian
[20] = tested on: OVCAR-3; details: OVCAR-3, Ovarian
[21] = tested on: OVCAR-8; details: OVCAR-8, Ovarian
[22] = tested on: NCI/ADR-RES; details: Ovarian
[23] = tested on: SK-OV-3; details: SK-OV-3, Ovarian
[24] = tested on: A498; details: A498, Renal
[25] = tested on: ACHN
[26] = tested on: CAKI-1; details: CAKI-1, Renal
[27] = tested on: RXF 393; details: RXF 393, Renal
[28] = tested on: SN12C
[29] = tested on: UO-31; details: UO-31, Renal
[30] = tested on: DU-145; details: DU-145, Prostate
[31] = tested on: MCF7; details: MCF7, Breast
[32] = tested on: MDA-MB-468; details: MDA-MB-468, Breast
[33] = read-out: 50% lethal concentration (LC50), Leukemia
[34] = read-out: 50% lethal concentration (LC50)
[35] = read-out: 50% lethal concentration (LC50), Non-Small Cell Lung
[36] = read-out: 50% lethal concentration (LC50), Renal

`C=C1CCC2C3(C)COC(c4cn(-c5ccccc5)nc4-c4ccc(Br)cc4)OC3CCC2(C)C1CC=C1C(=O)OCC1O` (centres unmarked) [1h] was tested. Which GI50 [1] did it give?
Its GI50 is 1.71 µM.

What about the Total growth inhibition (TGI) [1] of the same compound?
The Total growth inhibition (TGI) was 3.55 µM.

What about the GI50 [2] of the same compound?
The GI50 was 1.19 µM.

What about the GI50 ([3]; Leukemia) of the same compound?
Its GI50 is 0.48 µM.

What about the CC50 [3, 33] of the same compound?
Its CC50 is greater than 100 µM.

What about the GI50 [4] of the same compound?
Its GI50 is 2.07 µM.

And the CC50 [4, 34]?
The CC50 was greater than 100 µM.

What about the GI50 [5] of the same compound?
Its GI50 is 1.28 µM.

And the Total growth inhibition (TGI) [5]?
The Total growth inhibition (TGI) was greater than 100 µM.

What about the CC50 [5, 34] of the same compound?
The CC50 was greater than 100 µM.

And the GI50 ([6]; Leukemia)?
Its GI50 is 1.69 µM.

What about the Total growth inhibition (TGI) ([6]; Leukemia) of the same compound?
Its Total growth inhibition (TGI) is 8.13 µM.

What about the CC50 [6, 33] of the same compound?
The CC50 was greater than 100 µM.

And the Total growth inhibition (TGI) ([7]; Non-Small Cell Lung)?
The Total growth inhibition (TGI) was 51.6 µM.

And the GI50 ([7]; Non-Small-Cell Lung)?
The GI50 was 3.1 µM.

What about the CC50 [7, 35] of the same compound?
Its CC50 is greater than 100 µM.

What about the Total growth inhibition (TGI) ([8]; Non-Small Cell Lung) of the same compound?
Its Total growth inhibition (TGI) is 5.35 µM.

And the GI50 ([8]; Non-Small-Cell Lung)?
Its GI50 is 2.21 µM.

What about the CC50 [8, 35] of the same compound?
Its CC50 is greater than 100 µM.

And the Total growth inhibition (TGI) ([9]; HOP-62, Non-Small Cell Lung)?
The Total growth inhibition (TGI) was 3.83 µM.

What about the GI50 ([9]; HOP-62, Non-Small-Cell Lung) of the same compound?
The GI50 was 1.8 µM.

And the CC50 ([9]; read-out: 50% lethal concentration (LC50), HOP-62, Non-Small Cell Lung)?
The CC50 was 8.12 µM.

And the Total growth inhibition (TGI) ([10]; NCI-H460, Non-Small Cell Lung)?
The Total growth inhibition (TGI) was 3.34 µM.

And the GI50 ([10]; NCI-H460, Non-Small-Cell Lung)?
The GI50 was 1.59 µM.

What about the CC50 ([10]; read-out: 50% lethal concentration (LC50), NCI-H460, Non-Small Cell Lung) of the same compound?
The CC50 was 7 µM.

And the GI50 [11]?
Its GI50 is 1.68 µM.

What about the Total growth inhibition (TGI) [11] of the same compound?
Its Total growth inhibition (TGI) is 3.68 µM.

What about the Total growth inhibition (TGI) [12] of the same compound?
The Total growth inhibition (TGI) was greater than 100 µM.

What about the CC50 [12, 34] of the same compound?
Its CC50 is greater than 100 µM.

And the GI50 [13]?
The GI50 was 2.11 µM.

What about the Total growth inhibition (TGI) [13] of the same compound?
Its Total growth inhibition (TGI) is 4.68 µM.

And the CC50 [13, 34]?
The CC50 was 11.5 µM.

And the GI50 [14]?
Its GI50 is 2.11 µM.

What about the Total growth inhibition (TGI) [14] of the same compound?
Its Total growth inhibition (TGI) is 2.89 µM.

And the GI50 ([15]; Melanoma)?
Its GI50 is 1.55 µM.

What about the Total growth inhibition (TGI) ([15]; Melanoma) of the same compound?
The Total growth inhibition (TGI) was 2.9 µM.

What about the CC50 ([15]; read-out: 50% lethal concentration (LC50), Melanoma) of the same compound?
Its CC50 is 5.41 µM.

And the GI50 [16]?
The GI50 was 1.73 µM.

And the Total growth inhibition (TGI) [16]?
Its Total growth inhibition (TGI) is 3.3 µM.

And the CC50 [16, 34]?
Its CC50 is 6.3 µM.

And the GI50 [17]?
The GI50 was 1.7 µM.

And the Total growth inhibition (TGI) [17]?
Its Total growth inhibition (TGI) is 3.35 µM.

What about the GI50 [18] of the same compound?
The GI50 was 1.58 µM.

What about the Total growth inhibition (TGI) [18] of the same compound?
The Total growth inhibition (TGI) was 3.13 µM.

What about the CC50 [18, 34] of the same compound?
Its CC50 is 6.2 µM.

What about the GI50 [19] of the same compound?
The GI50 was 1.67 µM.

What about the Total growth inhibition (TGI) [19] of the same compound?
The Total growth inhibition (TGI) was 5.16 µM.

What about the CC50 [19, 34] of the same compound?
The CC50 was greater than 100 µM.

What about the GI50 [20] of the same compound?
The GI50 was 1.52 µM.

And the Total growth inhibition (TGI) [20]?
The Total growth inhibition (TGI) was 3.32 µM.

What about the CC50 [20, 34] of the same compound?
The CC50 was 7.25 µM.

What about the GI50 [21] of the same compound?
The GI50 was 1.55 µM.

What about the Total growth inhibition (TGI) [21] of the same compound?
Its Total growth inhibition (TGI) is 3.4 µM.

And the CC50 [21, 34]?
Its CC50 is 7.45 µM.

What about the GI50 [22] of the same compound?
Its GI50 is 1.83 µM.

What about the Total growth inhibition (TGI) [22] of the same compound?
The Total growth inhibition (TGI) was 4.19 µM.

And the GI50 [23]?
The GI50 was 2.03 µM.

And the Total growth inhibition (TGI) [23]?
The Total growth inhibition (TGI) was 8.27 µM.

What about the CC50 [23, 34] of the same compound?
The CC50 was greater than 100 µM.

And the GI50 [24]?
The GI50 was 4.35 µM.

What about the Total growth inhibition (TGI) [24] of the same compound?
The Total growth inhibition (TGI) was 1.66 µM.

And the CC50 [24, 34]?
Its CC50 is 53.6 µM.

And the GI50 ([25]; Renal)?
Its GI50 is 2.07 µM.

What about the Total growth inhibition (TGI) ([25]; Renal) of the same compound?
The Total growth inhibition (TGI) was 4.78 µM.

What about the CC50 [25, 36] of the same compound?
Its CC50 is greater than 100 µM.

And the GI50 [26]?
Its GI50 is 1.59 µM.

What about the Total growth inhibition (TGI) [26] of the same compound?
The Total growth inhibition (TGI) was 3.49 µM.

And the CC50 [26, 34]?
Its CC50 is 7.69 µM.

And the GI50 [27]?
The GI50 was 1.71 µM.

And the Total growth inhibition (TGI) [27]?
The Total growth inhibition (TGI) was 3.23 µM.

And the CC50 [27, 34]?
The CC50 was 6.11 µM.

What about the GI50 ([28]; Renal) of the same compound?
Its GI50 is 1.51 µM.

What about the Total growth inhibition (TGI) ([28]; Renal) of the same compound?
The Total growth inhibition (TGI) was 3.37 µM.

What about the CC50 [28, 36] of the same compound?
Its CC50 is 7.48 µM.

And the GI50 [29]?
The GI50 was 2.07 µM.

What about the Total growth inhibition (TGI) [29] of the same compound?
Its Total growth inhibition (TGI) is 2.52 µM.

And the CC50 [29, 34]?
The CC50 was 5.34 µM.

And the GI50 [30]?
Its GI50 is 1.77 µM.

And the Total growth inhibition (TGI) [30]?
Its Total growth inhibition (TGI) is 3.59 µM.

And the CC50 [30, 34]?
Its CC50 is 7.28 µM.

What about the GI50 [31] of the same compound?
The GI50 was 1.49 µM.

And the Total growth inhibition (TGI) [31]?
The Total growth inhibition (TGI) was 4.81 µM.

And the CC50 [31, 34]?
The CC50 was 72 µM.

And the GI50 [32]?
Its GI50 is 1.93 µM.

What about the Total growth inhibition (TGI) [32] of the same compound?
Its Total growth inhibition (TGI) is 3.47 µM.

And the CC50 [32, 34]?
Its CC50 is 6.23 µM.
